ChEMBL document CHEMBL6109139, “Rational Design of the First Dual Agonist at Trace Amine-Associated Receptor 1 and 5-HT2C Receptors Based on Binding Pocket Similarity for the Treatment of Schizophrenia and Alzheimer's Disease-Related Psychosis” (J Med Chem, 2025)
The source made the active and inactive calls. The rule behind the calls is not given here.

What was measured:
[1] = biological target: T1, Trace amine-associated receptor 1 (Homo sapiens, UniProt Q96RJ0); assay: Agonist activity at human TAAR1 extracted from CHO-K1 cell membrane coexpressing AGTRL1/Gi by cAMP assay; format: functional, cell membranes
T1 sequence (Q96RJ0 whole entry): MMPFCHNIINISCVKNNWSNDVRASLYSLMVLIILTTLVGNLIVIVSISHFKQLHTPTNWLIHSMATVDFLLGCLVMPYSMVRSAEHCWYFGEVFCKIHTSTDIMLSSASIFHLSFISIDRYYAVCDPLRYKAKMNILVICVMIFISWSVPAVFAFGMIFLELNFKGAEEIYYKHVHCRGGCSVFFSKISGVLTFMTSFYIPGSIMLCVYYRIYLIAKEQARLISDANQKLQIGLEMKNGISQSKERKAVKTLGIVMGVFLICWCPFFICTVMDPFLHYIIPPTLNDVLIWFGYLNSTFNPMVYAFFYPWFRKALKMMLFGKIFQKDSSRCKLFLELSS

[2] = biological target: T2, Trace amine-associated receptor 1 (Homo sapiens) (UniProt Q96RJ0); assay: Agonist activity at human TAAR1 extracted from CHO-K1 cell membrane coexpressing AGTRL1/Gi by measuring maximum efficacy at 0 to 100 uM by cAMP assay relative to control; format: functional, cell membranes; settings: dose 0-100 µM
T2 sequence (whole entry): T1 sequence (Q96RJ0 whole entry)

[3] = tested on: Mus musculus; assay: Antidepressant activity in chronic social defeat stress induced depressive C57BL/6J mouse model assessed as increase in time of interaction zone at 10 mg/kg, IG measured after 15 mins by open field test; format: functional, organism-based
[4] = tested on: Mus musculus; assay: Antipsychotic activity against MK-801 induced hypermobilization in male C57BL/6J mouse model assessed as reduction in hypermobilization state at 3 mg/kg, IG pretreated with compound followed by MK-801 addition and measured after 30 mins by open field test; format: functional, organism-based
[5] = biological target: T3, 5-hydroxytryptamine receptor 2C (Homo sapiens) (UniProt P28335); assay: Partial agonist activity at recombinant human 5-HT2CR expressed in HEK293 cells incubated for 2 hrs by measuring maximum efficacy by FLIPR calcium assay relative to control; format: functional, cell-based; settings: filed as partial agonist
T3 sequence (whole entry): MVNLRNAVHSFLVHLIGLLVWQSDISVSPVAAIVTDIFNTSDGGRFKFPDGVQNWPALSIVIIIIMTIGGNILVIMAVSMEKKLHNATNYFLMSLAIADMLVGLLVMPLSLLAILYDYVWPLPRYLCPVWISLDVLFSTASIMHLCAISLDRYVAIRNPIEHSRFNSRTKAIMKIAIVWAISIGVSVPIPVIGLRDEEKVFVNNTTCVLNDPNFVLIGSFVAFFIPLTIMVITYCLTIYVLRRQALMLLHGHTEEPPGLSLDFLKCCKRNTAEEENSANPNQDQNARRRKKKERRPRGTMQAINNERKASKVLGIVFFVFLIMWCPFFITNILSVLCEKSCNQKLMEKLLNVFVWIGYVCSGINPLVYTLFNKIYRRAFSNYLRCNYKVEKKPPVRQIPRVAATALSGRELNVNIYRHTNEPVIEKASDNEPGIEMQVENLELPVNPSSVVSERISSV

[6] = biological target: Trace amine-associated receptor 1 (Mus musculus) (UniProt Q923Y8); assay: Agonist activity at mouse TAAR1 by measuring maximum efficacy relative to control; format: functional; settings: filed as agonist
[7] = biological target: Trace amine-associated receptor 1 (Rattus norvegicus) (UniProt Q923Y9); assay: Agonist activity at rat TAAR1 by measuring maximum efficacy relative to control; format: functional; settings: filed as agonist
[8] = biological target: Trace amine-associated receptor 1 (Rattus norvegicus, UniProt Q923Y9); assay: Agonist activity at rat TAAR1; format: functional
[9] = biological target: Trace amine-associated receptor 1 (Mus musculus, UniProt Q923Y8); assay: Agonist activity at mouse TAAR1; format: functional
[10] = tested on: Mus musculus; assay: Antipsychotic activity in amyloid beta (1 to 42) induced hyperlocomotion in mouse model assessed as decrease in total distance traveled at 10 mg/kg by open field test; format: functional, organism-based
[11] = tested on: Mus musculus; assay: Antipsychotic activity against DOI-induced head-twitch response in mouse assessed as reduction in head-twitch response at 10 mg/kg, IG measured for 30 mins; format: functional, organism-based
[12] = tested on: Mus musculus; assay: Antipsychotic activity in amyloid beta(1 to 42) induced cognitive impairment in mouse model assessed as increase in discrimination ratio of novel objects at 1 mg/kg, IG measured after 24 hrs by novel object recognition test; format: functional, organism-based
[13] = tested on: Mus musculus; assay: Antipsychotic activity in amyloid beta(1 to 42) induced cognitive impairment in mouse model assessed as reduction in exploration time at 1 mg/kg, IG measured after 24 hrs by novel object recognition test; format: functional, organism-based
[14] = biological target: 5-hydroxytryptamine receptor 2C (Rattus norvegicus) (UniProt P08909); assay: Agonist activity at rat 5-HT2CR by measuring maximum efficacy relative to control; format: functional; settings: filed as agonist
[15] = species: Mus musculus; assay: Antipsychotic activity against MK-801 induced hyperlocomotion in male C57BL/6J mouse model assessed as effective dose; format: functional
[16] = biological target: T4, 5-hydroxytryptamine receptor 2C (Homo sapiens, UniProt P28335); assay: Agonist activity at recombinant human 5-HT2CR expressed in HEK293 cells incubated for 2 hrs by FLIPR calcium assay; format: functional, cell-based
T4 sequence (P28335 whole entry): T3 sequence (whole entry)

[17] = biological target: T3, 5-hydroxytryptamine receptor 2C (Homo sapiens); assay: Agonist activity at recombinant human 5-HT2CR expressed in HEK293 cells incubated for 2 hrs by measuring maximum efficacy by FLIPR calcium assay relative to control; format: functional, cell-based

Trace amine-associated receptor 1 (Mus musculus), sequence (Q923Y8 whole entry): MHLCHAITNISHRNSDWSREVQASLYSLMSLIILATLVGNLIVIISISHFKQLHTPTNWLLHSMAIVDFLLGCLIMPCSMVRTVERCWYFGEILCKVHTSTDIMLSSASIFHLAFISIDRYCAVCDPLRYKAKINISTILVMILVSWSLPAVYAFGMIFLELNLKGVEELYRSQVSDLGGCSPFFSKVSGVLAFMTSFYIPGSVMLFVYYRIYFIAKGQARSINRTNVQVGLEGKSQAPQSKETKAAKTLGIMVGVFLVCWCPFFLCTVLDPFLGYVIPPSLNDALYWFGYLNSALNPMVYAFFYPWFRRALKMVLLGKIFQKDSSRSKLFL
Trace amine-associated receptor 1 (Mus musculus, UniProt Q923Y8), sequence (Q923Y8 whole entry): as above
5-hydroxytryptamine receptor 2C (Rattus norvegicus), sequence (P08909 whole entry): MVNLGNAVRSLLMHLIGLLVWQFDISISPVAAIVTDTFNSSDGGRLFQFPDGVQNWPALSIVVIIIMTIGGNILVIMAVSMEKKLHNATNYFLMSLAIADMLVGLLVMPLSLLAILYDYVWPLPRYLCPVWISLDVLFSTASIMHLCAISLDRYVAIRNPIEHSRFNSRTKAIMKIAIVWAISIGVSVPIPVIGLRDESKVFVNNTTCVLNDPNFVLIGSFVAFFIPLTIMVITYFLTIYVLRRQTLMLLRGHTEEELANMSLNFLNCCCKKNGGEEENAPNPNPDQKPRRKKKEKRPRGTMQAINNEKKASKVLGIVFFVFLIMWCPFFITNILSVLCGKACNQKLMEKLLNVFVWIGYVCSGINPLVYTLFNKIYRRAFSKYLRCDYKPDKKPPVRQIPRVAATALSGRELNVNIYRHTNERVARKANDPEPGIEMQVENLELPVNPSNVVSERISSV
Trace amine-associated receptor 1 (Rattus norvegicus, UniProt Q923Y9), sequence (Q923Y9 whole entry): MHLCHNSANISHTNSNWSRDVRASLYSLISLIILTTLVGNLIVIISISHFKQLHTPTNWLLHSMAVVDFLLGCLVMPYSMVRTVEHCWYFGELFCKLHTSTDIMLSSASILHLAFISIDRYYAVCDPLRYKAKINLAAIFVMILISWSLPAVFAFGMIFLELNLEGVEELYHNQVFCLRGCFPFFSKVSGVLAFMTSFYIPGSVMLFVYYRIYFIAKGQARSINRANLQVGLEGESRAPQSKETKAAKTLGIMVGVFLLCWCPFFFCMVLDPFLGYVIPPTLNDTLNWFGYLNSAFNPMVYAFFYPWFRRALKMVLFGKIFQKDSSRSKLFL
Trace amine-associated receptor 1 (Rattus norvegicus), sequence (Q923Y9 whole entry): as above

Row | SMILES | EC50 [1] | Emax ([2]; filed as agonist) | further results
1 | c1cc2c(o1)C1CNCCN1CC2 (stereo in doubt; 22a) [listing 1 of 2 here] | 0.036 µM | – | –
2 | CNCC1NCCc2ccsc21 (stereo in doubt; 17a) [listing 1 of 2 here] | – | – | Emax [2]: 33.8%
3 | COc1ccc(C2CNCCO2)s1 (stereo in doubt; 27b) [listing 1 of 2 here] | – | 96.9% | –
4 | CC1(c2cccs2)CNCCO1 (racemic) | 20.7 µM | 92.6% | –
5 | c1cc2c(o1)C1CNCCN1CC2 (stereo in doubt; 22a) [listing 2 of 2 here] | – | 95.6% | –
6 | OCC1OCCc2ccsc21 (stereo in doubt; 15b) | – | – | Emax [2]: 2.72%
7 | FC(F)COc1ccsc1C1CNCCO1 (racemic) | 32.4 µM | 75.2% | –
8 | OCC1OCCc2ccsc21 (stereo in doubt; 15a) [listing 1 of 2 here] | > 100 µM | – | –
9 | CC(C)Oc1ccsc1C1CNCCO1 (racemic) | > 100 µM | – | Emax [2]: 18.1%
10 | CNCC1SCCc2ccsc21 (stereo in doubt; 16a) [listing 1 of 2 here] | – | – | Emax [2]: 37.4%
11 | Fc1ccsc1C1CNCCO1 (racemic) | 0.252 µM | 100% | –
12 | CC(=O)c1ccsc1C1CNCCO1 (stereo in doubt; 36b) [listing 1 of 2 here] | – | 41.7% | –
13 | c1cc2c(s1)CCN1CCNCC21 (stereo in doubt; 23a) [listing 1 of 2 here] | 14.2 µM | – | –
14 | CN1CCc2ccsc2C1CN (stereo in doubt; 18a) [listing 1 of 2 here] | – | – | Emax [2]: 18.9%
15 | CN1CCc2ccsc2C1CN (stereo in doubt; 18a) [listing 2 of 2 here] | > 100 µM | – | –
16 | c1cc2c(s1)CCN1CCNCC21 (stereo in doubt; 23a) [listing 2 of 2 here] | – | 51% | –
17 | CNCC1SCCc2ccsc21 (stereo in doubt; 16b) [listing 1 of 2 here] | – | 74.6% | –
18 | c1ccc2c(c1)CCN1CCNCC21 (racemic) [AZAQUINZOLE] | 41.7 µM | – | Emax [2]: 37.2%
19 | COc1ccccc1C1CNCCO1 (racemic) | 1.39 µM | 79% | –
20 | c1cc2c(o1)C1CNCCN1CC2 (stereo in doubt; 22b) [listing 1 of 2 here] | – | 94.3% | –
21 | OCC1OCCc2ccsc21 (stereo in doubt; 15a) [listing 2 of 2 here] | – | – | Emax [2]: 1.94%
22 | CNCC1OC(C)(C)Cc2ccsc21 (racemic) | – | 99.6% | –

Row | SMILES | EC50 [1] | Emax ([2]; filed as agonist) | further results
23 | COc1csc(C2CNCCO2)c1 (stereo in doubt; 26a) [listing 1 of 2 here] | 23.6 µM | – | –
24 | COc1ccc(C2CNCCO2)s1 (stereo in doubt; 27a) [listing 1 of 2 here] | 37.5 µM | – | –
25 | CNCC1SCCc2ccsc21 (stereo in doubt; 16b) [listing 2 of 2 here] | 0.522 µM | – | –
26 | Cc1cc2c(s1)Nc1ccccc1N=C2N1CCN(C)CC1 | – | – | Activity [3]: Active
27 | CC(=O)c1ccsc1C1CNCCO1 (stereo in doubt; 36a) [listing 1 of 2 here] | > 100 µM | – | –
28 | c1cc2c(s1)CCN1CCNCC21 (stereo in doubt; 23b) [listing 1 of 2 here] | 1.03 µM | – | –
29 | COc1csc(C2CNCCO2)c1 (stereo in doubt; 26b) [listing 1 of 2 here] | – | 85.6% | –
30 | COc1ccsc1C1CNCCO1 (stereo in doubt; 25a) | – | 94.1% | Activity [4]: Active; Similar Effect Compared To Ulotaront; Emax [5]: 68.3%
31 | CCCN1CCc2ccsc2C1CN (stereo in doubt; 19b) [listing 1 of 2 here] | – | – | Emax [2]: 34.3%
32 | c1cc2c(o1)C1CNCCN1CC2 (stereo in doubt; 22b) [listing 2 of 2 here] | 0.776 µM | – | –
33 | Fc1ccc(C2CNCCO2)s1 (racemic) | – | 80.8% | –
34 | COc1csc(C2CNCCO2)c1 (stereo in doubt; 26b) [listing 2 of 2 here] | 2.16 µM | – | –
35 | NCCc1ccc(O)cc1 [TYRAMINE] | 0.93 µM | 103% | Emax [6]: 103%; Emax [7]: 99%; EC50 [8]: 0.228 µM; EC50 [9]: 0.85 µM
36 | O=c1ccc2ccc(OCCCCN3CCN(c4cccc5sccc45)CC3)cc2[nH]1 | – | – | Activity [10]: Active; Activity [11]: Active; Activity [12]: inactive; Activity [13]: Active
37 | COc1ccc(C2CNCCO2)s1 (stereo in doubt; 27b) [listing 2 of 2 here] | 1.59 µM | – | –
38 | FC(F)(F)COc1ccsc1C1CNCCO1 (racemic) | – | 97.7% | –
39 | c1cc(C2CC2)c(C2CNCCO2)s1 (racemic) | – | 98.6% | –
40 | CNCC1NCCc2ccsc21 (stereo in doubt; 17a) [listing 2 of 2 here] | 42.1 µM | – | –
41 | CCCCCN1CCc2ccsc2C1CN (stereo in doubt; 20a) [listing 1 of 2 here] | > 30 µM | – | –
42 | CNCC1NCCc2ccsc21 (stereo in doubt; 17b) [listing 1 of 2 here] | 7.96 µM | – | –
43 | CCCCCN1CCc2ccsc2C1CN (stereo in doubt; 20a) [listing 2 of 2 here] | – | – | Emax [2]: 0%
44 | CNCC1OC(COC)Cc2ccsc21 (racemic) | 38 µM | 64% | –

Row | SMILES | EC50 [1] | Emax ([2]; filed as agonist) | further results
45 | NCCc1c[nH]c2ccc(O)cc12 | – | – | Emax [14]: 102%
46 | CCCN1CCc2ccsc2C1CN (stereo in doubt; 19a) [listing 1 of 2 here] | – | – | Emax [2]: 35.7%
47 | c1cc2c(s1)CCN1CCNCC21 (stereo in doubt; 23b) [listing 2 of 2 here] | – | 77% | –
48 | CNCC1SCCc2ccsc21 (stereo in doubt; 16a) [listing 2 of 2 here] | 20.7 µM | – | –
49 | CCc1[nH]nc(C(=O)Nc2ccc([C@H]3CNCCO3)cc2)c1C [RALMITARONT] | – | 66% | ED50 [15]: < 400 mg/kg; EC50 [16]: > 100 µM; Emax [17]: 0.13%
50 | CNCC1NCCc2ccsc21 (stereo in doubt; 17b) [listing 2 of 2 here] | – | 61.2% | –
51 | COc1ccsc1C1CNCCO1 (stereo in doubt; 25b) | – | 76.4% | –
52 | CN1CCc2ccsc2C1CN (stereo in doubt; 18b) | – | 96.5% | –
53 | CC(=O)c1ccsc1C1CNCCO1 (stereo in doubt; 36a) [listing 2 of 2 here] | – | – | Emax [2]: 2.04%
54 | Fc1csc(C2CNCCO2)c1 (racemic) | – | 107% | –
55 | CCCCCN1CCc2ccsc2C1CN (stereo in doubt; 20b) | – | – | Emax [2]: 15.6%
56 | CCCN1CCc2ccsc2C1CN (stereo in doubt; 19b) [listing 2 of 2 here] | 6.93 µM | – | –
57 | COc1ccc(C2CNCCO2)s1 (stereo in doubt; 27a) [listing 2 of 2 here] | – | 69% | –
58 | CCCN1CCc2ccsc2C1CN (stereo in doubt; 19a) [listing 2 of 2 here] | 7.97 µM | – | –
59 | FCCOc1ccsc1C1CNCCO1 (racemic) | – | 46.7% | –
60 | COc1csc(C2CNCCO2)c1 (stereo in doubt; 26a) [listing 2 of 2 here] | – | 63.8% | –
61 | c1csc([C@@H]2CNCCO2)c1 | – | 80.1% | EC50 [16]: 3.49 µM; Emax ([17]; filed as agonist): 101%
62 | CNCC1OCC(C)(C)c2ccsc21 (racemic) | 24.1 µM | 53.3% | –
63 | c1csc(C2CNCO2)c1 (racemic) | 6.4 µM | 97% | –
64 | CNCC1OCCc2ccoc21 (racemic) | – | 105% | –
65 | c1ccc2sc(C3CNCCO3)cc2c1 (racemic) | 4.35 µM | 72.1% | –
66 | CC(=O)c1ccsc1C1CNCCO1 (stereo in doubt; 36b) [listing 2 of 2 here] | 15.2 µM | – | –
